Where two headings read alike, the source gives them in different places.
Experiments:
[1] = Human liver microsome assay (metabolic stability); type: in vitro ADME; settings: pH 7.4
Description: Control and reagent: NADPH, magnesium chloride, testosterone, phosphate buffer, etc. were supplied by Dalian Meilun Biotech Co., Ltd., etc.
Liver microsome: human liver microsomes were supplied by Corning.
Experimental step: the liver microsome incubations were performed in 96-well plates, each incubation system having a volume of 200 μL, in a medium of 0.1 M phosphate buffer (pH 7.4), including liver microsomes at a final concentration of 0.2 mg/mL, 1 μM of the test drug, 3.0 mM MgCl2, 0.01% DMSO, 0.5% acetonitrile, and 2.0 mM NADPH. The incubation system described above without NADPH was pre-incubated at 37° C. for 5 min using a rotary water bath constant temperature oscillator. NADPH was added to initiate the reaction. At 0, 5, 15, 30, and 60 min, 20 μL of the sample was taken out from the incubation system after mixing well and added to 200 μL of acetonitrile containing an internal standard to terminate the reaction. Under the same conditions, 1 μM testosterone was used as a positive control to assess the reliability of the reaction system. For the negative control, phosphate buffer was used instead of NADPH, and all other incubation conditions remained the same. At 60 min, 20 μL of the sample was taken out after mixing well and added to 200 μL of termination solution containing an internal standard to terminate the reaction.
Sample analysis: After treatments such as precipitated protein extraction with an organic solvent, the incubated sample was analyzed using liquid chromatography-tandem mass spectrometry (LC-MS/MS). The concentrations of the test drug or the positive control drug in the sample were semi-quantified. The concentration in the sample was expressed using the ratio of the analyte peak area to the internal standard peak area.
Data processing and analysis: A standard curve of the In residual rate of the drug in the incubation system with respect to the incubation time was plotted by using Excel software, linear regression was performed to obtain a slope k, and the half-life T1/2 (min) and the intrinsic clearance CLint (mL/min/kg) were calculated according to the following formula: […]

human SERT = human SERT (Homo sapiens, UniProt P31645); assay: Inhibitory activity assay against 5-HT transporter (neurotransmitter transporter uptake assay kit); type: cell-based; settings: HEK-293 cells overexpressing human SERT; read-out: 5-HTT (IC50)
Description: In HEK-293 cells overexpressing human SERT, the transporter inhibitory effect of the test compound on human SERT was assayed using a Neurotransmitter transporter uptake assay kit (Molecular devices).

human DAT = human DAT (Homo sapiens, UniProt Q01959); assay: DAT transporter inhibitory activity test (neurotransmitter transporter uptake assay kit); type: cell-based
human NET = human NET (Homo sapiens, UniProt P23975); assay: NET transporter inhibitory activity test (neurotransmitter transporter uptake assay kit); type: cell-based
Description: Transporter inhibition of human DAT and NET expressed in HEK-293 cells was assessed using a neurotransmitter transporter uptake assay kit. The assay was performed as described in the kit instructions, using centanafadine as a positive control. The specific procedures were as follows:
First day cell plating: HEK 293T cells were digested with trypsin, centrifuged, resuspended with a medium, counted, and seeded into a 6 cm culture dish at a density of 3×10^6 cells/well.
Second day cell transfection: HEK 293T cells were subjected to medium exchange, and then A, B tubes were prepared for NET-pcDNA5/FRT plasmid to be transfected. 200 μL of Opti-MEM was added to tube A, and 10 μL of Lipofectamine™ 3000 was added. The mixture was mixed well. 200 μL of Opti-MEM was added to tube B, and 5 μg of NET-pcDNA5/FRT plasmid was added. The mixture was mixed well, and then 10 μL of P3000™ was added to tube B. The mixture was mixed well (plasmid to transfection reagent ratio 1 μg:2 μL). The diluted solution of tube A was added to the diluted solution of tube B. The mixture was mixed well, and incubated at room temperature for 15 min. Finally, the mixture was gently added to the cells that had been subjected to medium exchange, gently shaken to mix, and then incubated overnight in an incubator at 37° C. with a carbon dioxide concentration of 5%. The cells were used for compound functional activity assays 18-20 h after transfection.
• a) After overnight transfection of NET cells, the cells were digested with trypsin, resuspended with DMEM+10% Dialyzed FBS medium, seeded into a 384-well plate at 20000 cells/well, and incubated overnight. Stably transfected DAT cells were digested with trypsin, resuspended with DMEM+10% Dialyzed FBS medium, seeded into a 384-well plate at 2500 cells/well, and incubated overnight. • b) 1× Assay buffer was prepared according to the kit instruction for later use; the positive compound and the test compound were serially diluted with DMSO, and then diluted to 2× with 1× assay buffer. • c) The medium was removed from the 384-well plate by centrifugation. • d) 16 μL of the compound prepared in step b) was added to corresponding experimental wells, wherein an initial concentration of 2× positive control compound was added to the positive control well, and 0.2% DMSO buffer was added to the negative control well. After centrifuging, the plate was incubated at 37° C. for 30 min. • e) A detection reagent was prepared using 1×HBSS, and 16 μL of the detection reagent was added to each well. After centrifuging, the plate was incubated at 37° C. for 60 min. • f) After incubation, the reading at 510 nm under the excitation of the detection wavelength of 425 nm was measured using a microplate reader. Curve fitting and IC50 calculation were performed using GraphPad Prism software nonlinear regression method.

male C57 mice = assay: Forced swim test; type: in vivo; settings: intraperitoneal injection, test 0.5 h after dosing, motionless time in last 4 min
Description: Drug: the compound of the present disclosure was first uniformly mixed with 5% DMSO and 5% Solutol® HS 15. hysiological saline was then added to make up 90% of the final volume. The mixture was prepared at an appropriate concentration immediately before use.
Animal: male C57 mice, about 22 g. The animals were randomly divided into a blank control group and test drug groups, 8 animals per group, and mice in each group were administered either the vehicle or the test compound via intraperitoneal injection.
Experimental steps: the mice were subjected to forced swim test 0.5 h after dosing. The water level in the forced swim device was 45 cm, and the water temperature was 25° C. The mice were placed in an experimental room to adapt to the environment for 1 h before the experiment began. When the experiment began, the mice were placed in the device for 6 min, and the whole process was recorded by a camera. Only the motionless time of the mice in the last 4 min was counted when data were analyzed.

[2] = In vivo metabolism (pharmacokinetic) experiment in mice; design: species or system male ICR mice; settings: mouse
In short: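 Fasted (12 h) male ICR mice received compound in 5% DMSO/5% Solutol HS15/90% saline at 2.5 mg/kg iv or 10 mg/kg po. Plasma and brain sampled 0.083–8 h (n=3 per time point) and analysed by LC-MS/MS. Parameters derived by non-compartmental analysis.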

Sigma2 receptor = Sigma2 receptor (Homo sapiens, UniProt Q5BJF2); assay: Sigma receptor affinity assay ([3H]-DTG binding), Sigma2R
Description: Cell membrane: the membrane protein adopted in the experiment was extracted from an HEK293 cell strain stably expressing Sigmal receptor and an HEK293 cell strain stably expressing Sigma2 receptor, which were constructed by WuXi AppTec.
• 1) Detection buffer: 50 mM Tris-HCl, pH=7.4, stored at 4° C. • 2) Sigma 1R assay plate washing buffer: 50 mM Tris-HCl, pH=7.4, stored at 4° C.; sigma2R assay plate washing buffer: 50 mM Tris-HCl, 100 mM NaCl, pH=7.4, stored at 4° C. • 3) The compounds were diluted to each working concentration: 4-fold serial gradient dilutions for 8 concentrations.
The affinity inhibition constant Ki was calculated using the Cheng Prusoff equation: […]

[3] = human liver microsomes 0.2 mg/mL, 1 μM test drug, NADPH, 37° C., read-out: Half-life (t1/2, min)
[4] = human liver microsomes 0.2 mg/mL, 1 μM test drug, NADPH, 37° C., read-out: Intrinsic clearance (Clint, mL/min/kg)
[5] = DAT stably transfected HEK cells, read-out: DAT (IC50)
[6] = male ICR mice, oral 10 mg/kg vs iv 2.5 mg/kg, read-out: F (%)
[7] = male ICR mice, oral 10 mg/kg, plasma, read-out: AUC0-inf(po)
[8] = male ICR mice, oral 10 mg/kg, plasma, read-out: Cmax (po)
[9] = male ICR mice, oral 10 mg/kg, plasma, read-out: T1/2 (po) (converted)
[10] = HEK293 membranes stably expressing Sigma2 receptor, [3H]-DTG 5 nM, read-out: Sigma2R (Ki)

Sequence of human SERT (P31645 whole entry): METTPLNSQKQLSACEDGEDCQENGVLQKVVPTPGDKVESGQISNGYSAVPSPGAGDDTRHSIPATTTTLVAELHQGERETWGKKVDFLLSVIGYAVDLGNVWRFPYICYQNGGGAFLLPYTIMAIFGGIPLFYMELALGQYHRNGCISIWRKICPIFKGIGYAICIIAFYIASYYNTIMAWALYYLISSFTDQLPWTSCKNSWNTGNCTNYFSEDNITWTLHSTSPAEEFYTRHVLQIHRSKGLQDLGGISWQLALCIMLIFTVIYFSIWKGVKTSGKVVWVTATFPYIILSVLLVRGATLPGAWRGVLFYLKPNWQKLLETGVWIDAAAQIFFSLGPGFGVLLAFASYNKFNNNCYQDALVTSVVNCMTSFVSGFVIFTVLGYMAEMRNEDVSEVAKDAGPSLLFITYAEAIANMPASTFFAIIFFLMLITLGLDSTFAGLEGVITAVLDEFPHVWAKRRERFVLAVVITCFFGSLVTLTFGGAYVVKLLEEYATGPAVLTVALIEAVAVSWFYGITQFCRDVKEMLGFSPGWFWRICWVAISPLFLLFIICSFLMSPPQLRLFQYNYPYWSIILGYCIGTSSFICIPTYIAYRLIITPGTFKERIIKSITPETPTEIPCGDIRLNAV
Sequence of human NET (P23975 whole entry): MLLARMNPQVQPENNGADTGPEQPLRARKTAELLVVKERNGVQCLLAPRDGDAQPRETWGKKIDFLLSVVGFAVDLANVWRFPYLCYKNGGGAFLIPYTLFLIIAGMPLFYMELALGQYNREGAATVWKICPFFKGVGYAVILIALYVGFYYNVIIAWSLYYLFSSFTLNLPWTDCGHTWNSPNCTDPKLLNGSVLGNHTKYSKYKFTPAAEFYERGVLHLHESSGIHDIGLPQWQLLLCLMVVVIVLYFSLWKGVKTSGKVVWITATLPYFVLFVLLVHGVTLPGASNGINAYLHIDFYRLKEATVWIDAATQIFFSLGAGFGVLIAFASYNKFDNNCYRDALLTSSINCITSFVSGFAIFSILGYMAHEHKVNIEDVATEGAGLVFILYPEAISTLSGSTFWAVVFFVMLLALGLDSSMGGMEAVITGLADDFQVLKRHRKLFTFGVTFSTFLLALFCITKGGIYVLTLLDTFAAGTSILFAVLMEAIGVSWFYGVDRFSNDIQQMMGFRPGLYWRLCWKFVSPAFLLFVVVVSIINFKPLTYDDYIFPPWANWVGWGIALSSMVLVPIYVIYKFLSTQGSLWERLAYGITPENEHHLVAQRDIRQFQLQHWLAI
Sequence of Sigma2 receptor (Q5BJF2 whole entry, species assumed): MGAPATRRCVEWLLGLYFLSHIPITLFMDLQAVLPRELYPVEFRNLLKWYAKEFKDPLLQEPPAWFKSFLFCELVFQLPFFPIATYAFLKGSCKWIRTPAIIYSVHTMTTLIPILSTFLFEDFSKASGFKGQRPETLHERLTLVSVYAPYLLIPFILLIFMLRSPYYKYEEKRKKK
Sequence of human DAT (Q01959 whole entry): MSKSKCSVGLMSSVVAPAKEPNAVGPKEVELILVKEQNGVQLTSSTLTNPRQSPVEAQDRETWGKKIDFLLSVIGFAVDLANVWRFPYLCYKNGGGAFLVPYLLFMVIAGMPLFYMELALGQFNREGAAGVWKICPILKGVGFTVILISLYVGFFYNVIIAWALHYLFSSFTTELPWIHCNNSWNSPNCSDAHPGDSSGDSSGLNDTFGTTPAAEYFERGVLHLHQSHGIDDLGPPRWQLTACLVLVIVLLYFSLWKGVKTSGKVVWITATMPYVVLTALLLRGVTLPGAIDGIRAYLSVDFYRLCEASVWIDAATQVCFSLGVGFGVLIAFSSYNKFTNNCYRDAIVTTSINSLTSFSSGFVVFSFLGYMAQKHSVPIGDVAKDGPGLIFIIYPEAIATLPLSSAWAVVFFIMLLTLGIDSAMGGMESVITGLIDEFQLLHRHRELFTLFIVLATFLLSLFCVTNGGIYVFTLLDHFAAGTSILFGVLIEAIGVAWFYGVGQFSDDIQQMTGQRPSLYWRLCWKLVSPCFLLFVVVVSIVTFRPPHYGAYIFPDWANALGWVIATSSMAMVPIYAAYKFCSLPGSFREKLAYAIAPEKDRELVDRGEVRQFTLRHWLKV

Nc1nc2c(s1)CC(c1cccc(Cl)c1)(N1CCCCC1)CC2 (racemic) [rac-A49, 6-(3-chlorophenyl)-6-(piperidin-1-yl)-4,5,6,7-tetrahydrobenzothiazol-2-amine]
half-life at 1 μM [1, 3]: 117 min | CLint scaled at 1 μM [1, 4]: 34.7 mL/min/kg | IC50 (human SERT): 1200 nM | IC50 (human DAT; [5]): 330 nM | IC50 (human NET): 2500 nM

Nc1nc2c(s1)CC(c1ccccc1)(N1CCCCC1)CC2 (racemic) [rac-A48, 6-phenyl-6-(piperidin-1-yl)-4,5,6,7-tetrahydrobenzothiazol-2-amine]
CLint scaled at 1 μM ([1]; human, microsomes): 7.4 mL/min/kg | half-life at 1 μM ([1]; human, microsomes): 547 min | Effective dose (male C57 mice): 1 mg/kg | IC50 (human DAT): 760 nM | IC50 (human NET; NET transiently transfected HEK 293T cells, read-out: NET (IC50)): 4600 nM

CNC1(c2ccccc2)CCc2ncsc2C1 (racemic) [rac-A13, N-methyl-6-phenyl-4,5,6,7-tetrahydrobenzothiazol-6-amine]
half-life at 1 μM [1, 3]: 266 min | CLint scaled at 1 μM [1, 4]: 15.2 mL/min/kg | bioavailability [2, 6]: 78% | AUC(0-inf) [2, 7]: 845 ng·h/mL | Cmax [2, 8]: 518 ng/mL | half-life [2, 9]: 1.98 h | Ki (Sigma2 receptor): 308 nM | Effective dose (male C57 mice): 2.5 mg/kg

N[C@@]1(c2ccccc2)CCc2ccsc2C1 [S-A19]
Ki (Sigma2 receptor; [10]): 1120 nM

N[C@]1(c2ccccc2)CCc2ccsc2C1 [R-A19]
Ki (Sigma2 receptor; [10]): 1270 nM | IC50 (human SERT): 1200 nM

CN(C)C1(c2ccccc2)CCc2nc(N)sc2C1 (racemic) [rac-A114, N^6,N^6-dimethyl-6-phenyl-4,5,6,7-tetrahydrobenzothiazole-2,6-diamine]
IC50 (human SERT): 1000 nM | IC50 (human DAT; [5]): 1000 nM | IC50 (human NET): 3500 nM

Nc1nc2c(s1)CC(c1ccccc1)(N1CCCC1)CC2 (racemic) [rac-A50, 6-Phenyl-6-(Pyrrolidin-1-Yl)-4,5,6,7-Tetrahydrobenzothiazol-2-amine]
bioavailability [2, 6]: 38% | AUC(0-inf) [2, 7]: 321 ng·h/mL | Cmax [2, 8]: 150 ng/mL | half-life [2, 9]: 1.48 h | IC50 (human SERT): 1700 nM | IC50 (human DAT; [5]): 100 nM | IC50 (human NET): 800 nM

Nc1nc2c(s1)CC(N)(c1cccc(F)c1)CC2 (racemic) [rac-A10, 6-(3-fluorophenyl)-4,5,6,7-tetrahydrobenzothiazole-2,6-diamine]
IC50 (human SERT): 1300 nM | IC50 (human DAT; [5]): 6600 nM | IC50 (human NET): 4200 nM

CN[C@]1(c2ccccc2)CCc2ncsc2C1 [R-A13]
Ki (Sigma2 receptor; [10]): 289 nM

Nc1nc2c(s1)CC(c1cccc(Cl)c1)(N1CCCC1)CC2 (racemic) [rac-A51, 6-(3-chlorophenyl)-6-(pyrrolidin-1-yl)-4,5,6,7-tetrahydrobenzothiazol-2-amine]
IC50 (human SERT): 1200 nM | IC50 (human DAT; [5]): 200 nM | IC50 (human NET): 300 nM

CN[C@]1(c2ccccc2)CCc2nc(N)sc2C1 [R-A3]
Ki (Sigma2 receptor; [10]): 1760 nM | IC50 (human SERT): 1200 nM

NC1(c2ccccc2)CCc2ccsc2C1 (racemic) [rac-A19, 6-phenyl-4,5,6,7-tetrahydrobenzothiophen-6-amine]
half-life at 1 μM [1, 3]: 80 min | CLint scaled at 1 μM [1, 4]: 50.6 mL/min/kg | bioavailability [2, 6]: 48% | AUC(0-inf) [2, 7]: 797 ng·h/mL | Cmax [2, 8]: 284 ng/mL | half-life [2, 9]: 2.84 h | Ki (Sigma2 receptor): 523 nM

CN[C@@]1(c2ccccc2)CCc2nc(N)sc2C1 [S-A3]
Ki (Sigma2 receptor; [10]): 990 nM | IC50 (human DAT; [5]): 1600 nM

CNC1(c2ccccc2)CCc2nc(N)sc2C1 (racemic) [rac-A3, N^6-methyl-6-phenyl-4,5,6,7-tetrahydrobenzothiazole-2,6-diamine]
AUC(0-inf) ([2]; male, ICR, po, 10 mg/kg, AUC0-inf(po) (ng*h/mL)): 1160 ng·h/mL | Cmax ([2]; male, ICR, po, 10 mg/kg, Cmax (po) (ng/mL)): 330 ng/mL | bioavailability ([2]; male, ICR, po, 10 mg/kg, F (%)): 56% | half-life ([2]; male, ICR, po, 10 mg/kg, T1/2 (po) (h)): 2.85 h | Ki (Sigma2 receptor; [10]): 124 nM | Effective dose (male C57 mice): 3 mg/kg | IC50 (human SERT): 1200 nM | IC50 (human DAT): 1000 nM

From patent US20260174739A1 (priority 2022, published 2026)
